{"source": "ChEMBL document CHEMBL5365420", "about": "“Kinetics, Thermodynamics, and Structural Effects of Quinoline-2-Carboxylates, Zinc-Binding Inhibitors of New Delhi Metallo-β-lactamase-1 Re-sensitizing Multidrug-Resistant Bacteria for Carbapenems” (J Med Chem, 2023)", "key": {"[1]": {"test_system": "Klebsiella pneumoniae", "assay": "Antibacterial activity against clinical isolate Klebsiella pneumoniae ST1493/10 expressing blaNDM-1 co-expressing blaCMY-2like/blaTEM-1/blaCTX-M-15/blaSHV-28/blaOXA-1 and blaOXA-9 assessed as meropenem MIC at 80 uM measured after 20 hrs by broth microdilution assay (reference value: 21.3 mg/L)", "format": "functional"}, "[2]": {"test_system": "Escherichia coli", "assay": "Antibacterial activity against clinical isolate Escherichia coli K12 J53-ST10 684/18 expressing blaNDM-1 co-expressing blaCMY-2 and blaOXA-10 assessed as meropenem MIC at 80 uM measured after 20 hrs by broth microdilution assay (reference value: 21.3 mg/L)", "format": "functional"}, "[3]": {"test_system": "Klebsiella pneumoniae", "assay": "Antibacterial activity against clinical isolate Klebsiella pneumoniae 50/11 expressing blaNDM-1 co-expressing blaTEM-1/blaSHV-28/blaTEM-1/blaCTX-M-15 and blaOXA-1 assessed as meropenem MIC at 40 uM measured after 20 hrs by broth microdilution assay (reference value: 10.65 mg/L)", "format": "functional"}, "[4]": {"test_system": "Escherichia coli", "assay": "Antibacterial activity against clinical isolate Escherichia coli K12 J53-ST10 618/15 expressing blaNDM-1 assessed as meropenem MIC at 80 uM measured after 20 hrs by broth microdilution assay (reference value: 21.3 mg/L)", "format": "functional"}, "[5]": {"test_system": "Escherichia coli", "assay": "Antibacterial activity against clinical isolate Escherichia coli K12 J53-ST10 699/15 expressing blaNDM-1 assessed as meropenem MIC at 40 uM measured after 20 hrs by broth microdilution assay (reference value: 10.65 mg/L)", "format": "functional"}, "[6]": {"target": "T1, 72 kDa type IV collagenase (Homo sapiens, UniProt P08253)", "assay": "Binding affinity to human recombinant MMP-2 CD assessed as inhibition constant using OMNIMMP as substrate incubated for 30 mins by fluorescence based analysis"}, "[7]": {"target": "T1, 72 kDa type IV collagenase", "assay": "Inhibition of human recombinant MMP-2 CD at 10 uM using OMNIMMP as substrate incubated for 30 mins by fluorescence based analysis relative to control"}, "[8]": {"test_system": "Klebsiella pneumoniae", "assay": "Antibacterial activity against clinical isolate Klebsiella pneumoniae 50/20 expressing blaNDM-5 co-expressing blaTEM-1 and blaSHV-1 assessed as meropenem MIC at 40 uM measured after 20 hrs by broth microdilution assay (reference value: 10.65 mg/L)", "format": "functional"}, "[9]": {"test_system": "Escherichia coli", "assay": "Antibacterial activity against clinical isolate Escherichia coli ST1012/10 expressing blaNDM-1 co-expressing blaTEM-1/blaCTX-M-15/blaOXA-1 and blaOXA-2 assessed as meropenem MIC at 40 uM measured after 20 hrs by broth microdilution assay (reference value: 10.65 mg/L)", "format": "functional"}, "[10]": {"test_system": "Escherichia coli", "assay": "Antibacterial activity against clinical isolate Escherichia coli 371/12 expressing blaNDM-7 co-expressing blaCTX-M-15 and blaOXA-1 assessed as meropenem MIC at 80 uM measured after 20 hrs by broth microdilution assay (reference value: 21.3 mg/L)", "format": "functional"}, "[11]": {"test_system": "Escherichia coli", "assay": "Antibacterial activity against clinical isolate Escherichia coli K12 J53-ST10 684/18 expressing blaNDM-1 co-expressing blaCMY-2 and blaOXA-10 assessed as meropenem MIC at 40 uM measured after 20 hrs by broth microdilution assay (reference value: 10.65 mg/L)", "format": "functional"}, "[12]": {"assay": "Inhibition of VIM-2 (unknown origin) incubated for 15 mins by absorbance based microplate reader analysis", "set-up": "species or system Bacteria"}, "[13]": {"test_system": "Escherichia coli", "assay": "Antibacterial activity against clinical isolate Escherichia coli ST1012/10 expressing blaNDM-1 co-expressing blaTEM-1/blaCTX-M-15/blaOXA-1 and blaOXA-2 assessed as meropenem MIC at 80 uM measured after 20 hrs by broth microdilution assay (reference value: 21.3 mg/L)", "format": "functional"}, "[14]": {"target": "Carbonic anhydrase 2 (Homo sapiens) (UniProt P00918)", "assay": "Inhibition of human CA2 at 10 uM using pNPA as substrate preincubated for 15 mins followed by substrate by absorbance based analysis relative to control"}, "[15]": {"test_system": "Escherichia coli", "assay": "Antibacterial activity against clinical isolate Escherichia coli K12 J53-ST10 696/17 expressing blaNDM-1 co-expressing blaCMY-4 assessed as meropenem MIC at 40 uM measured after 20 hrs by broth microdilution assay (reference value: 10.65 mg/L)", "format": "functional"}, "[16]": {"test_system": "Escherichia coli", "assay": "Antibacterial activity against clinical isolate Escherichia coli 371/12 expressing blaNDM-7 co-expressing blaCTX-M-15 and blaOXA-1 assessed as meropenem MIC at 40 uM measured after 20 hrs by broth microdilution assay (reference value: 10.65 mg/L)", "format": "functional"}, "[17]": {"test_system": "Klebsiella pneumoniae", "assay": "Antibacterial activity against clinical isolate Klebsiella pneumoniae 50/11 expressing blaNDM-1 co-expressing blaTEM-1/blaSHV-28/blaTEM-1/blaCTX-M-15 and blaOXA-1 assessed as meropenem MIC at 80 uM measured after 20 hrs by broth microdilution assay (reference value: 21.3 mg/L)", "format": "functional"}, "[18]": {"target": "Histone deacetylase 1 (Homo sapiens) (UniProt Q13547)", "sequence (Q13547 whole entry)": "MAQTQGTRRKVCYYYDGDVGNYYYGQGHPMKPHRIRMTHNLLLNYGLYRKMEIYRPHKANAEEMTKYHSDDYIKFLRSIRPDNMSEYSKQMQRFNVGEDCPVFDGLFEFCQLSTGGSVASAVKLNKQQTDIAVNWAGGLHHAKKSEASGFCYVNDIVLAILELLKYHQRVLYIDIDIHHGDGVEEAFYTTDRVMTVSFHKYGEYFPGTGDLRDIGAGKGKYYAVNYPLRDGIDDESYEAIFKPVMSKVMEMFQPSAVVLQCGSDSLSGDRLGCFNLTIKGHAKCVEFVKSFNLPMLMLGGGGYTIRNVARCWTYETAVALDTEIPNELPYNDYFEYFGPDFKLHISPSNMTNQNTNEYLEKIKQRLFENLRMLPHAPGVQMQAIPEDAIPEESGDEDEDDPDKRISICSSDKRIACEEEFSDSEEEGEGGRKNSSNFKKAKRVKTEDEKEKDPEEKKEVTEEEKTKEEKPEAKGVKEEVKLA", "assay": "Inhibition of C-terminal 6His/FLAG-tagged human recombinant full-length HDAC1 (1 to 482(end) residues) at 10 uM using Boc-Lys-(Ac)-AMC as substrate incubated for 10 mins followed by substrate addition measured after 1 hr by fluorescence based analysis relative to control", "details": "time 70.0 min"}, "[19]": {"assay": "Selectivity ratio of Ki for human recombinant MMP-2 CD to Ki for C-terminal 6His-tagged full length NDM-1 (unknown origin)"}, "[20]": {"assay": "Inhibition of GIM1 (unknown origin) incubated for 15 mins by absorbance based microplate reader analysis", "set-up": "species or system Bacteria"}, "[21]": {"test_system": "Escherichia coli", "assay": "Antibacterial activity against clinical isolate Escherichia coli K12 J53-ST10 696/17 expressing blaNDM-1 co-expressing blaCMY-4 assessed as meropenem MIC at 80 uM measured after 20 hrs by broth microdilution assay (reference value: 21.3 mg/L)", "format": "functional"}, "[22]": {"test_system": "Klebsiella pneumoniae", "assay": "Antibacterial activity against clinical isolate Klebsiella pneumoniae 50/20 expressing blaNDM-5 co-expressing blaTEM-1 and blaSHV-1 assessed as meropenem MIC at 80 uM measured after 20 hrs by broth microdilution assay (reference value: 21.3 mg/L)", "format": "functional"}, "[23]": {"test_system": "Klebsiella pneumoniae", "assay": "Antibacterial activity against clinical isolate Klebsiella pneumoniae 62/07 expressing blaVIM-19 co-expressing blaSHV-1/blaCTX-M-14 and blaCMY-4 assessed as meropenem MIC at 80 uM measured after 20 hrs by broth microdilution assay (reference value: 21.3 mg/L)", "format": "functional"}, "[24]": {"test_system": "Klebsiella pneumoniae", "assay": "Antibacterial activity against clinical isolate Klebsiella pneumoniae ST23213/19 expressing blaNDM-1 co-expressing blaOXA-48/blaSHV-11/blaCTX-M-15 and blaOXA-1 assessed as meropenem MIC at 80 uM measured after 20 hrs by broth microdilution assay (reference value: 21.3 mg/L)", "format": "functional"}, "[25]": {"test_system": "Klebsiella pneumoniae", "assay": "Antibacterial activity against clinical isolate Klebsiella pneumoniae ST1493/10 expressing blaNDM-1 co-expressing blaCMY-2like/blaTEM-1/blaCTX-M-15/blaSHV-28/blaOXA-1 and blaOXA-9 assessed as meropenem MIC at 40 uM measured after 20 hrs by broth microdilution assay (reference value: 10.65 mg/L)", "format": "functional"}, "[26]": {"target": "Metallo-beta-lactamase type 2 (Bacteria, UniProt C7C422)", "sequence (C7C422 whole entry)": "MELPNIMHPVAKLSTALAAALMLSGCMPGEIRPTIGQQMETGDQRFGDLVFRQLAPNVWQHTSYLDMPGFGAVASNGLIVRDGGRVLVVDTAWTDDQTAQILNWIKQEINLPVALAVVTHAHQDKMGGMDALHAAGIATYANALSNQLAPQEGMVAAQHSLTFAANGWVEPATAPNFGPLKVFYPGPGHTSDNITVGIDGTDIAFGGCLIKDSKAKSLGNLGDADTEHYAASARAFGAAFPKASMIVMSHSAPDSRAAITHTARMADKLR", "description": "Inhibition of C-terminal 6His-tagged full length NDM-1 (unknown origin) expressed in Escherichia coli BL21-DE3 using nitrocefin as substrate incubated for 15 mins followed by substrate addition by absorbance based microplate reader analysis"}, "[27]": {"test_system": "Klebsiella pneumoniae", "assay": "Antibacterial activity against clinical isolate Klebsiella pneumoniae ST23213/19 expressing blaNDM-1 co-expressing blaOXA-48/blaSHV-11/blaCTX-M-15 and blaOXA-1 assessed as meropenem MIC at 40 uM measured after 20 hrs by broth microdilution assay (reference value: 10.65 mg/L)", "format": "functional"}, "[28]": {"test_system": "Acinetobacter baumannii", "assay": "Antibacterial activity against clinical isolate Acinetobacter baumannii IC 19/09 expressing blaNDM-1 co-expressing blaOXA-64 assessed as meropenem MIC at 80 uM measured after 20 hrs by broth microdilution assay (reference value: 21.3 mg/L)", "format": "functional"}, "[29]": {"test_system": "Klebsiella pneumoniae", "assay": "Antibacterial activity against clinical isolate Klebsiella pneumoniae 62/07 expressing blaVIM-19 co-expressing blaSHV-1/blaCTX-M-14 and blaCMY-4 assessed as meropenem MIC at 40 uM measured after 20 hrs by broth microdilution assay (reference value: 10.65 mg/L)", "format": "functional"}, "[30]": {"test_system": "Escherichia coli", "assay": "Antibacterial activity against clinical isolate Escherichia coli K12 J53-ST10 618/15 expressing blaNDM-1 assessed as meropenem MIC at 40 uM measured after 20 hrs by broth microdilution assay (reference value: 10.65 mg/L)", "format": "functional"}, "[31]": {"assay": "Inhibition of IMP-1 (unknown origin) expressed in Escherichia coli BL21-DE3 incubated for 15 mins by absorbance based microplate reader analysis", "set-up": "species or system Bacteria"}, "[32]": {"test_system": "Escherichia coli", "assay": "Antibacterial activity against clinical isolate Escherichia coli K12 J53-ST10 699/15 expressing blaNDM-1 assessed as meropenem MIC at 80 uM measured after 20 hrs by broth microdilution assay (reference value: 21.3 mg/L)", "format": "functional"}, "[33]": {"test_system": "Acinetobacter baumannii", "assay": "Antibacterial activity against clinical isolate Acinetobacter baumannii IC 19/09 expressing blaNDM-1 co-expressing blaOXA-64 assessed as meropenem MIC at 40 uM measured after 20 hrs by broth microdilution assay (reference value: 10.65 mg/L)", "format": "functional"}}, "data": [{"smiles": "CS(=O)(=O)Nc1cccc2ccc(C(=O)O)nc12", "values": [{"measurement": "MIC", "setting": "[1]", "result": 2, "unit": "µg/mL"}, {"measurement": "MIC", "setting": "[2]", "result": "≤ 0.125", "unit": "µg/mL"}, {"measurement": "MIC", "setting": "[3]", "result": "≤ 0.125", "unit": "µg/mL"}, {"measurement": "MIC", "setting": "[4]", "result": "≤ 0.125", "unit": "µg/mL"}, {"measurement": "MIC", "setting": "[5]", "result": "≤ 0.125", "unit": "µg/mL"}, {"measurement": "Ki", "setting": "[6]", "result": 4.08, "unit": "µM"}, {"measurement": "inhibition", "setting": "[7]", "result": "> 90", "unit": "%"}, {"measurement": "MIC", "setting": "[8]", "result": "≤ 0.125", "unit": "µg/mL"}, {"measurement": "MIC", "setting": "[9]", "result": "≤ 0.125", "unit": "µg/mL"}, {"measurement": "MIC", "setting": "[10]", "result": 0.25, "unit": "µg/mL"}, {"measurement": "MIC", "setting": "[11]", "result": "≤ 0.125", "unit": "µg/mL"}, {"measurement": "IC50", "setting": "[12]", "result": 0.79, "unit": "µM"}, {"measurement": "MIC", "setting": "[13]", "result": "≤ 0.125", "unit": "µg/mL"}, {"measurement": "inhibition", "setting": "[14]", "result": "< 5", "unit": "%"}, {"measurement": "MIC", "setting": "[15]", "result": "≤ 0.125", "unit": "µg/mL"}, {"measurement": "MIC", "setting": "[16]", "result": 2, "unit": "µg/mL"}, {"measurement": "MIC", "setting": "[17]", "result": "≤ 0.125", "unit": "µg/mL"}, {"measurement": "inhibition", "setting": "[18]", "result": "< 5", "unit": "%"}, {"measurement": "Ratio Ki", "setting": "[19]", "result": 5}, {"measurement": "IC50", "setting": "[20]", "result": 50.1, "unit": "µM"}, {"measurement": "MIC", "setting": "[21]", "result": "≤ 0.125", "unit": "µg/mL"}, {"measurement": "MIC", "setting": "[22]", "result": "≤ 0.125", "unit": "µg/mL"}, {"measurement": "MIC", "setting": "[23]", "result": 0.5, "unit": "µg/mL"}, {"measurement": "MIC", "setting": "[24]", "result": 16, "unit": "µg/mL"}, {"measurement": "MIC", "setting": "[25]", "result": 4, "unit": "µg/mL"}, {"measurement": "IC50", "setting": "[26]", "result": 1.64, "unit": "µM"}, {"measurement": "MIC", "setting": "[27]", "result": 16, "unit": "µg/mL"}, {"measurement": "MIC", "setting": "[28]", "result": 2, "unit": "µg/mL"}, {"measurement": "MIC", "setting": "[29]", "result": 1, "unit": "µg/mL"}, {"measurement": "MIC", "setting": "[30]", "result": "≤ 0.125", "unit": "µg/mL"}, {"measurement": "IC50", "setting": "[31]", "result": 7.27, "unit": "µM"}, {"measurement": "MIC", "setting": "[32]", "result": "≤ 0.125", "unit": "µg/mL"}, {"measurement": "MIC", "setting": "[33]", "result": 4, "unit": "µg/mL"}]}]}
